Source: ChEMBL document CHEMBL4814046, “Inhibitory effects and mechanism of antifungal action of the natural cyclic depsipeptide, aureobasidin A against Cryptococcus neoformans” (Bioorg Med Chem Lett, 2021)
≈ marks a conversion by molar mass, not a printed value.

What was measured:
Type in all cases: functional
Cryptococcus neoformans [1] = test: Fungicidal activity against Cryptococcus neoformans PFCC 93-589 by broth microdilution assay
Cryptococcus neoformans [2] = test: Antifungal activity against Cryptococcus neoformans PFCC 93-589 by broth microdilution assay
Cryptococcus neoformans [3] = test: Antifungal activity against Cryptococcus neoformans PFCC 93-589 assessed as increase in extracellular potassium leakage at 2 times MIC incubated up to 12 hrs measured per mg dry weight of cell by spectrophotometric method; conditions: time hrs <=12
Cryptococcus neoformans [4] = test: Antifungal activity against Cryptococcus neoformans PFCC 93-589 assessed as half minimum inhibitory concentration by broth microdilution assay

`C[C@@H]1[C@H](O)[C@@H](C)/C=C/C=C/C=C/C=C/C=C/C=C/C=C/[C@H](O[C@@H]2O[C@H](C)[C@@H](O)[C@H](N)[C@@H]2O)C[C@@H]2O[C@](O)(C[C@@H](O)C[C@@H](O)[C@H](O)CC[C@@H](O)C[C@@H](O)CC(=O)O[C@H]1C)C[C@H](O)[C@H]2C(=O)O` [AMPHOTERICIN B] was tested. Which MFC (Cryptococcus neoformans [1]) did it give?
The MFC was 1 mg/L (≈ 1.08 µM).

What about the MIC (Cryptococcus neoformans [2]) of the same compound?
Its MIC is 0.25 mg/L (≈ 0.271 µM).

And the Activity (Cryptococcus neoformans [3])?
Its Activity is 3.56 mM.

What about the MIC (Cryptococcus neoformans [4]) of the same compound?
The MIC was 0.125 mg/L (≈ 0.135 µM).
